Assay results reported in PMC6650409, “Modeling the binding of diverse ligands within the Ah receptor ligand binding domain” (Scientific Reports, 2019).
Positions count from the first letter of the chain named. Like-named read-outs stand apart in the source and are kept apart here.

How the values were obtained:
mAhR [1] = target: T1, mAhR (Mus musculus, UniProt P30561); assay: biochemical; assay type: binding
T1 construct: made in house; host or cells: in vitro, Promega TNT Quick coupled transcription/translation rabbit reticulocyte lysate
T1 sequence (P30561 10-848): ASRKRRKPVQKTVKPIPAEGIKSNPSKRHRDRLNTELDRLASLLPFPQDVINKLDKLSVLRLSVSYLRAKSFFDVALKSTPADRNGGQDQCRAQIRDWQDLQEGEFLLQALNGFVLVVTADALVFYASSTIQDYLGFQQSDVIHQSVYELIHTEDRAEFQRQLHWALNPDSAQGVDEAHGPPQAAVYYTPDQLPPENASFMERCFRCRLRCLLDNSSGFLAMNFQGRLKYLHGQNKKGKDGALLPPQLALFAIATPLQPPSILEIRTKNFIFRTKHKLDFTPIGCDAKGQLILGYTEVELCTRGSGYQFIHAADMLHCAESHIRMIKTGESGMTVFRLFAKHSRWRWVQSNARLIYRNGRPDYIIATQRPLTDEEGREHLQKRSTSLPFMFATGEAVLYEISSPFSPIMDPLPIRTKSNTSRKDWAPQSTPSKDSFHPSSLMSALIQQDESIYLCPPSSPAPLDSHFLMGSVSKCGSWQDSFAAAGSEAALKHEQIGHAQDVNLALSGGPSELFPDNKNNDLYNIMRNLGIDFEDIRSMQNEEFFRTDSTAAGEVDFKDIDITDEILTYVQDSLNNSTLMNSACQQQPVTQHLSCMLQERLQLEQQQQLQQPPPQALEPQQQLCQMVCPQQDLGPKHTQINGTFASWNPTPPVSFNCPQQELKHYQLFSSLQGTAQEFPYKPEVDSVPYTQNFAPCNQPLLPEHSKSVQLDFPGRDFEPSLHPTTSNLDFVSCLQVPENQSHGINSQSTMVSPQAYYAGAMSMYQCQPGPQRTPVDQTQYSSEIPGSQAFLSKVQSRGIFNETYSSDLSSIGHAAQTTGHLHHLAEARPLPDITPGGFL
Protocol: (§1) [^3H]TCDD specific binding to wild-type or mutant mAhRs synthesized in vitro using the Promega TNT Quick coupled transcription/translation rabbit reticulocyte lysate kit (Madison, WI) was carried out as previously described. [^3H]TCDD specific binding was determined by subtracting the amount of [^3H]TCDD bound to unprogrammed lysate (nonspecific binding) from the total amount of [^3H]TCDD binding to lysate containing in vitro expressed AhR. The amount of [^3H]TCDD specific binding remaining in the presence of the indicated competitor chemical was expressed as a percent of the total [^3H]TCDD specific binding. The relative binding affinity (IC50) of each chemical was determined from concentration-dependent competitive inhibition curves obtained using [^3H]TCDD and increasing concentrations of each test chemical and the mean IC50 value was determined using three-parameter non-linear regression.

mAhR [2] = target: T2, mAhR (Mus musculus, UniProt P30561); assay: biochemical; details: wild-type mAhR
T2 construct: made in house; host or cells: in vitro transcription/translation (rabbit reticulocyte lysate)
Protocol: Wild-type and mutant mAhRs and mARNT were synthesized in vitro in the presence of unlabeled L-methionine, the resulting mAhRs and mARNT translation mixtures and MEDGK (25 mM MOPS (3-(N-morpholino)propanesulfonic acid; pH 7.5), 1 mM EDTA, 1 mM dithiothreitol, 10% (v/v) glycerol, 150 mM KCl) were mixed in a 1:1:8 (v/v/v) ratio and incubated with DMSO (1% final concentration) or the indicated concentration of TCDD or test chemical for 2 hours at room temperature. An aliquot of each incubation was mixed with [^32P]-labeled double-stranded oligonucleotide containing the mouse AhR DNA binding site DRE3 (a dioxin responsive element from the upstream region of the murine Cyp1a1 gene[71]) and protein-DNA complexes resolved by gel retardation analysis as previously described in detail. Gels were visualized using a FLA9000 Fujifilm Imager and protein-DNA complexes quantitated with Fujifilm MultiGauge software. For potency measurements, reactions were incubated with increasing concentrations of the test chemical and the chemical concentration producing half maximal AhR:ARNT:DRE complex formation (EC50) determined.
T2 sequence (P53762 whole entry partner, one chain of several): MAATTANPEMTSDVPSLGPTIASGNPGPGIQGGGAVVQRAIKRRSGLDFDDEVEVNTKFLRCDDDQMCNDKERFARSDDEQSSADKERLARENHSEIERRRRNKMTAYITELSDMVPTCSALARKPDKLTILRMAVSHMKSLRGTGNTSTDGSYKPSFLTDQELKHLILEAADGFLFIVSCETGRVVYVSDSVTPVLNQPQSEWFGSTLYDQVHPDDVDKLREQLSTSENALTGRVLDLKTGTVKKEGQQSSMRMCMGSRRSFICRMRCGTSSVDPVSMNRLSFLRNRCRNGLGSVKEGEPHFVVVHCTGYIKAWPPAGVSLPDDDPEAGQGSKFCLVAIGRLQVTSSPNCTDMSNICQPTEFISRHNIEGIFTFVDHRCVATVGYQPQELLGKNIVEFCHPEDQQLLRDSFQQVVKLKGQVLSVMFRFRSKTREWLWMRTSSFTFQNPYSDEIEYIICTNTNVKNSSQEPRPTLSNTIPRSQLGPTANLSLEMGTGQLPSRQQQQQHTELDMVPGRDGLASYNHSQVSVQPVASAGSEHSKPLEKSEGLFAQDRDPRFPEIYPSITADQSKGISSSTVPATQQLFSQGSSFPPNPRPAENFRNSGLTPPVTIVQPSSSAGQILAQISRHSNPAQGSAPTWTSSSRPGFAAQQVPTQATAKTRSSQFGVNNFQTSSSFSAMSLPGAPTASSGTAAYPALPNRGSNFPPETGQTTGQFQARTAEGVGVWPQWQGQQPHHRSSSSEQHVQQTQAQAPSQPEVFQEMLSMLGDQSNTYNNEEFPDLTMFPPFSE

M334A mutant AhR = target: T3, M334A mutant AhR (Mus musculus, UniProt P30561, M334A); assay: [3H]TCDD competitive ligand binding, M334A mutant AhR; details: for change of relative binding affinity versus wild-type AhR: M334A substitution, in words; for IC50: Table S6, AhR mutant M334A
T3 construct: made in house; host or cells: in vitro, Promega TNT Quick rabbit reticulocyte lysate
T3 sequence (P30561 10-848 M334A): T1 sequence (P30561 10-848) with M325A
Protocol: The mouse AhR (mAhR) and ARNT (mARNT) expression plasmids, mβAhR/pcDNA3 and mβArnt/pcDNA3, have been previously described. Point mutations of mβAhR/pcDNA3 were carried out using the QuikChange Lightning Mutagenesis Kit (Agilent Technologies) and all constructs were verified by sequencing.
as §1

[3] = Table S1, wild-type mAhR, mean of nine independent reactions, read-out: AhR LB IC50
[4] = competition with [3H]TCDD, wild-type mAhR, values in text, read-out: relative AhR ligand binding affinity (IC50)
[5] = Table S1, read-out: AhR DNAB -LogEC50 (converted)
[6] = gel retardation, values in text, read-out: relative potency to stimulate AhR DNA binding in vitro (EC50)
[7] = Table S1, mean of nine independent reactions, read-out: AhR DNAB EC50

| SMILES | IC50 (mAhR [1]; [3]) | IC50 (mAhR [1]; [4]) | EC50 (mAhR [2]; [5]) | change of relative binding affinity versus wild-type AhR (M334A mutant AhR) | IC50 (M334A mutant AhR) | EC50 (mAhR [2]; [6]) | EC50 (mAhR [2]; [7]) | IC50 (mAhR [1]) | EC50 (mAhR [2]; AhR DNAB EC50, Table S1, mean of nine independent reactions) | EC50 (mAhR [2]; relative potency to stimulate AhR DNA binding in vitro (EC50), gel retardation, values in text) | IC50 (mAhR [1]; Table S1, wild-type mAhR, read-out: AhR LB -LogIC50 (converted)) |
| --- | --- | --- | --- | --- | --- | --- | --- | --- | --- | --- | --- |
| Cc1ccc2cc3c(ccc4ccccc43)c3c2c1CC3 [3MC, 3-methylcholanthrene] | 1.58 nM | 1.6 nM | 6.03 nM | decreased | 34.7 nM |  |  |  |  |  |  |
| O=c1cc(-c2ccccc2)oc2ccc3ccccc3c12 [BNF] | 7.24 nM | 7.2 nM |  |  |  | 138 nM |  |  |  |  |  |
| c1ccc2c(c1)cc1ccc3cccc4ccc2c1c34 [BaP, Benzo(a)pyrene] |  | 617 nM |  |  |  | 39 nM | 38.9 nM |  |  |  |  |
| c1ccc2c(c1)ccc1cc3c(ccc4ccccc43)cc12 [DBA, dibenz(a,h)anthracene] |  | 7.6 nM | 3.98 nM | no significant effect | 7.33 nM |  | 4.02 nM |  |  |  |  |
| O=Cc1c2[nH]c3ccccc3c2cc2[nH]c3ccccc3c12 [FICZ, 6-formylindolo[3,2-b]carbazole] | 1.02 nM | 1 nM |  |  |  | 4.25 nM |  |  |  |  |  |
| Clc1ccc(-c2cc(Cl)c(Cl)c(Cl)c2)cc1Cl [PCB126, 3,3′4,4′5-pentachlorobiphenyl] | 5.89 nM | 5.9 nM |  | significantly reduced | 74.1 nM | 6.5 nM | 6.51 nM |  |  |  |  |
| Clc1cc2c(cc1Cl)Oc1cc(Cl)c(Cl)cc1O2 [TCDD, 2,3,7,8-tetrachlorodibenzo-p-dioxin] |  | 1 nM |  |  |  |  |  | 1 nM | 7.53 nM | 7.5 nM |  |
| Clc1cc2oc3cc(Cl)c(Cl)cc3c2cc1Cl [TCDF, 2,3,7,8-tetrachlorodibenzofuran] | 20.1 nM |  |  |  |  | 4.5 nM | 4.55 nM |  |  |  | 20 nM |
